According to patent US20100056536A1, “METHOD OF TREATING ATRIAL FIBRILLATION” (priority 2008, published 2010):

Legend:
[1] = system: canine left ventricular arterially perfused wedge preparations; assay: Electrophysiology (APD90, sodium channel-dependent parameters) in arterially perfused ventricular wedge preparations; conditions: for DTE (% Δ) Ventricles, diastolic threshold of excitation: ranolazine 10 μM, lidocaine 21 μM, propafenone 1.5 μM; for effect on APD90 in ventricular myocardium, in words: ranolazine 1 to 10 μmol/L, lidocaine 2.1 to 21 μmol/L
Protocol: (§4) Experiments were performed using isolated arterially perfused canine right atrial preparations and left ventricular arterially perfused wedge preparations (Antzelevitch et al. Circulation. 2004;110:904-910, Burashnikov et al. Am J Physiol. 2004;286:H2393-H2400., and Burashnikov et al. Circulation. 2003;107:2355-2360.) Therapeutic plasma concentrations of ranolazine (1-10 μM), lidocaine (2.1-21 μM), and propafenone (0.3-3.0 μM) were examined.
(§5) Sodium channel-mediated parameters, such as the maximum rate of rise of the AP upstroke (Vmax), conduction velocity (CV), diastolic threshold of excitation (DTE), and post-repolarization refractoriness (PRR) were evaluated. PRR was defined as the difference between action potential duration (APD) and atrial effective refractory period (ERP).

[2] = system: canine superfused PV sleeve preparations; assay: Action potential recording in superfused pulmonary vein (PV) sleeve preparations; format: cell-based
Protocol: Action potentials (AP) were recorded from canine superfused PV sleeves using microelectrode techniques. Acetylcholine (ACh, 1 μM), isoproterenol (Iso, 1 μM), or their combination was used to induce EADs, DADs, and triggered activity.

[3] = system: arterially-perfused right atrial preparations; assay: Transmembrane action potentials in arterially-perfused right atrial preparations (Example 4); conditions: for action potential duration of pectinate muscle (PM-APD75): untreated 154±11
Excerpt: Floating microelectrode techniques were used to record transmembrane action potentials (BCL=500 ms).

[4] = target: T1, rapidly activating delayed rectifier potassium current (IKr) (Canis lupus familiaris, UniProt Q9TSZ3); conditions: read-out: IC50 for block of IKr; cited from earlier work
T1 sequence (Q9TSZ3 1-1158): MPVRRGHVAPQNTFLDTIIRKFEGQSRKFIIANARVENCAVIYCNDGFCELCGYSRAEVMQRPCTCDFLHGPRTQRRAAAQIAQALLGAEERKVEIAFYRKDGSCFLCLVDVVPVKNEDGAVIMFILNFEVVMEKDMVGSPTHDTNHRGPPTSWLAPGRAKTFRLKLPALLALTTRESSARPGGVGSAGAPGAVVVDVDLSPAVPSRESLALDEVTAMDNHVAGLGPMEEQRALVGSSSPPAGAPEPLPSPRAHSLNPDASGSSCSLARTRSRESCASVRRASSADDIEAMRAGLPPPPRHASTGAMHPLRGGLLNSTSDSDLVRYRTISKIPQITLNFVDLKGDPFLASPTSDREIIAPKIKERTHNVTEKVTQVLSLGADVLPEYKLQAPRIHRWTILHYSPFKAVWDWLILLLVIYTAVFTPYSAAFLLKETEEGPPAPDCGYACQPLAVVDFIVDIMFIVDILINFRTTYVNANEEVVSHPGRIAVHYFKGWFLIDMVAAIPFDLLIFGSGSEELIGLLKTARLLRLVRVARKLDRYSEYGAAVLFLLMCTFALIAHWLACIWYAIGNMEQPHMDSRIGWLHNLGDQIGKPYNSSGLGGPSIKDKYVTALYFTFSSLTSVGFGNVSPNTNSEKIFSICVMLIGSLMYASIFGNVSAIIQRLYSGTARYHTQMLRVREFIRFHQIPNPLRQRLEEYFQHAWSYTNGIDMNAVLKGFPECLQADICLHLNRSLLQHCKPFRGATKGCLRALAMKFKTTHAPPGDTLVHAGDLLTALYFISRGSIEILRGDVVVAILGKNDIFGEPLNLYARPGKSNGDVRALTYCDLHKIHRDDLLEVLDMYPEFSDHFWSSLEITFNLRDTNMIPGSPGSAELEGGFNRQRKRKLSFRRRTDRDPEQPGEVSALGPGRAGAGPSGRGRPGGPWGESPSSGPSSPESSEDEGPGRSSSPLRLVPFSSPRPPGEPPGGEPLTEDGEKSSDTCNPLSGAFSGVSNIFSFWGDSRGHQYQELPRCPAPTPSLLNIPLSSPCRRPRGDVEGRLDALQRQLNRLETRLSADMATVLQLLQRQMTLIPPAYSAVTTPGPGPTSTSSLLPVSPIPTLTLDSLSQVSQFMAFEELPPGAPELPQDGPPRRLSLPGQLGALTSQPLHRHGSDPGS

[5] = system: self-terminating AF in atria exposed to ischemia and β-adrenergic agonists; assay: AF induced by ischemia and β-adrenergic agonists in atria; format: cell-based, canine; conditions: ranolazine 5-10 μM
Excerpt: Ischemia/reperfusion coupled with iso-proterenol mimics the conditions that prevail during acute myocardial infarction or the substrate encountered postsurgically.

[6] = system: acetylcholine-mediated AF in coronary artery-perfused right atrial preparations; assay: Acetylcholine-mediated persistent AF in coronary artery-perfused right atrial preparations; conditions: for Termination of AF (share of preparations): acetylcholine (0.5 μM) persistent AF, ranolazine 10.0 μM, lidocaine 21.0 μM, propafenone 1.5-3.0 μM
[7] = system: ventricular Purkinje fibers and M cell preparations; conditions: paced at a CL of 500 ms; read-out: IC50 for suppression of Vmax; cited from earlier work
late INa = target: T2, late INa (Canis lupus familiaris, UniProt Q865W3); conditions: canine ventricular myocytes; read-out: IC50 for inhibition of late INa; cited from earlier work
T2 construct: host or cells: canine ventricular myocytes

[8] = target: T3, peak sodium channel current (INa) in canine ventricular myocytes (Canis lupus familiaris, UniProt Q865W3); assay: Whole-cell patch clamp, steady-state inactivation of sodium current in ventricular myocytes; format: cell-based; conditions: 15 μM ranolazine, before drug −72.53±0.16
T3 construct: Whole-cell peak sodium currents were recorded at 37° C. in low-sodium external solution from myocytes isolated; endogenous in cells; host or cells: myocytes isolated from right atrium and left ventricle of adult mongrel dogs
Protocol: (§1) FIG. 1 presents the voltage dependence of activation and steady-state inactivation of sodium current in canine atrial versus ventricular myocytes. (A) Current-voltage relationship for sodium current in ventricular and atrial myocytes. […] (B) Summarized steady-state inactivation curves. […] Insets show representative atrial and ventricular traces after 1-s conditioning pulses to the indicated potentials. (C) Steady-state inactivation curves before and after addition of 15 μM ranolazine.
(§2) The electrophysiological effects of therapeutic concentrations of ranolazine (1 to 10μmol/L) and lidocaine (2.1 to 21 μmol/L) were evaluated in canine isolated coronary-perfused atrial and ventricular preparations.
(§3) Whole-cell peak sodium currents were recorded at 37° C. in low-sodium external solution from myocytes isolated from the right atrium and left ventricle (LV) of adult mongrel dogs.

peak INa = target: T4, peak INa (Canis lupus familiaris, UniProt Q865W3); conditions: canine ventricular myocytes; read-out: IC50 for inhibition of peak INa; cited from earlier work
T4 construct: […]; host or cells: canine ventricular myocytes

Purkinje fibers = assay: Action potential duration in Purkinje fibers; format: cell-based, canine; conditions: ranolazine 1 to 10 μmol/L
Protocol: as §2

[9] = system: canine isolated coronary artery-perfused right atrial preparations; assay: Electrophysiology (APD90, sodium channel-dependent parameters) in isolated coronary artery-perfused atrial preparations; conditions: for effect on action potential duration (APD90) in atria, in words: ranolazine 1 to 10 μmol/L, lidocaine 2.1 to 21 μmol/L
Protocol: as §4, §5

[10] = target: T5, peak sodium channel current (INa) in canine atrial myocytes (Canis lupus familiaris, UniProt Q865W3); assay: Whole-cell patch clamp, steady-state inactivation of sodium current in atrial myocytes; format: cell-based; conditions: 15 μM ranolazine, n=5, before drug −86.35±0.19
T5 construct: Whole-cell peak sodium currents were recorded at 37° C. in low-sodium external solution from myocytes isolated; endogenous in cells; host or cells: myocytes isolated from right atrium and left ventricle of adult mongrel dogs
Protocol: as §1, §2, §3

[11] = drug alone: chronic Amio (6 weeks, 40 mg/kg daily) PV sleeves, or 10 μM ranolazine in untreated controls, untreated 124 ms
[12] = acute ranolazine 5 μM in chronic AMIO treated atria, BCL=500 ms
[13] = drug alone: chronic AMIO (40 mg/kg daily for 6 weeks) or acute ranolazine 5 μM in untreated atria, BCL=500 ms
[14] = drug alone: chronic AMIO (40 mg/kg daily for 6 weeks) or acute ranolazine 5 μM in untreated atria, BCL=500 ms, untreated 158±18

In the case of `COc1ccccc1OCC(O)CN1CCN(CC(=O)Nc2c(C)cccc2C)CC1` (racemic) [Ranolazine, (±)-N-(2,6-dimethylphenyl)-4-[2-hydroxy-3-(2-methoxyphenoxy)-propyl]-1-piperazineacetamide], the “change (prolongation) of APD90 in ventricles” value (from here on “change (prolongation) of APD90”) ([1]; CL=500 ms) is reported as “+2%”, the “DTE (% Δ) Ventricles, diastolic threshold of excitation” value (shortened to “DTE (% Δ) Ventricles”) ([1]; pacing cycle length 0.3 s) is reported as 8% and the “DTE (% Δ) Ventricles” value ([1]; pacing cycle length 0.5 s) is reported as “+3%”. For the same compound, the “effect on APD90 in ventricular myocardium, in words” value [1] was “no effect”, the “average CL at which 2:1 activation failure developed” value (“average CL” below) ([2]; 5 μM RAN superfused on chronic Amio PV sleeves, n=5) was 1350 ms and the “average CL” value ([2]; 10 μM RAN superfused on chronic Amio PV sleeves, n=5) was 1660 ms. The “late phase 3 EAD- and DAD-induced triggered activity” value ([2]; RAN 5-10 μM added to chronic Amio PV sleeves, Iso and/or ACh, rapid pacing) was “completely eliminated”, the “average CL” value [2, 11] was 190 ms and the “action potential duration APD75” value [3, 12] was 189 ± 9 ms. The “effective refractory period (ERP)” value [3, 12] was 258 ± 50 ms, the “action potential duration of pectinate muscle (PM-APD75)” value [3, 13] was 159 ± 9 ms and the “effective refractory period (ERP)” value [3, 14] was 190 ± 24 ms. For the same compound, the “shortest pacing CL permitting 1:1 response” value ([3]; in presence of acetylcholine (ACh), control 71±12) was 94 ± 31 ms, the “shortest pacing CL permitting a 1:1 response” value ([3]; without acetylcholine, control 129±8) was 234 ± 49 ms and the IC50 [4] was 12 µM. The “atria in which induction of AF was prevented” value [5] was 4 of 5, the “Termination of AF (share of preparations)” value (shortened to “Termination of AF”) [6] was 66% (4/6) and the IC50 [7] was over 100 µM. For the same compound, the IC50 (late INa) was 6 µM, the “half-inactivation voltage (V0.5) of steady-state inactivation after ranolazine” value [8] was −74.81±0.14 mV and the IC50 (peak INa) was 294 µM. The “effect on APD90 in Purkinje fibers, in words” value (Purkinje fibers) was “abbreviation”, the “atrial selectivity of depression of sodium channel-dependent parameters (atria versus ventricles), in words” value [9] was “striking atrial selectivity” and the “prolongation of APD90 in atria” value ([9]; CL=500 ms) was 11%. For the same compound, the “effect on action potential duration (APD90) in atria, in words” value [9] was “prolongation” and the “half-inactivation voltage (V0.5) of steady-state inactivation after ranolazine” value [10] was −91.38±0.35 mV.

In the case of `CCCCc1oc2ccccc2c1C(=O)c1cc(I)c(OCCN(CC)CC)c(I)c1` [Chronic Amiodarone, amiodarone], the “change (prolongation) of APD90” value ([1]; CL=500 ms) is reported as 12%, the “maximal rate of rise of AP upstroke (Vmax)” value ([2]; PV sleeves from dogs treated with chronic Amio (6 weeks, 40 mg/kg daily), CL 1000 ms, untreated controls 314±79) is reported as 115±89 V/s and the “average CL” value [2, 11] is reported as 420 ms. For the same compound, the “action potential duration of pectinate muscle (PM-APD75)” value [3, 13] was 183 ± 7 ms, the “effective refractory period (ERP)” value [3, 14] was 222 ± 12 ms and the “atria in which persistent acetylcholine-mediated AF could be induced” value ([6]; atria isolated from dogs chronically treated, versus 10 of 10 untreated atria) was 1 of 6. The “prolongation of APD90 in atria” value ([9]; CL=500 ms) was 22%.

In the case of `CCN(CC)CC(=O)Nc1c(C)cccc1C` [Lidocaine, lidocaine], the “abbreviation of APD90 in ventricles” value ([1]; CL=500 ms) is reported as 9%, the “DTE (% Δ) Ventricles” value ([1]; pacing cycle length 0.3 s) is reported as 40% and the “DTE (% Δ) Ventricles” value ([1]; pacing cycle length 0.5 s) is reported as “+8%”. The “effect on APD90 in ventricular myocardium, in words” value [1] was “abbreviated”, the “Termination of AF” value [6] was 33% (2/6) and the “atrial selectivity of depression of sodium channel-dependent parameters (atria versus ventricles), in words” value [9] was “much less atrial-selective than ranolazine or chronic amiodarone”. The “abbreviation of APD90 in atria” value ([9]; CL=500 ms) was 6% and the “effect on action potential duration (APD90) in atria, in words” value [9] was “abbreviated”.

In the case of `CCCNCC(O)COc1ccccc1C(=O)CCc1ccccc1` (stereo not shown) [Propafenone, propafenone], the “change (prolongation) of APD90” value ([1]; CL=500 ms) is reported as “+3%”, the “DTE (% Δ) Ventricles” value ([1]; pacing cycle length 0.3 s) is reported as 125% and the “DTE (% Δ) Ventricles” value ([1]; pacing cycle length 0.5 s) is reported as “+84%”. For the same compound, the “Termination of AF” value [6] was 100% (7/7) and the “prolongation of APD90 in atria” value ([9]; CL=500 ms) was 13%.
